Measurements as given in article PMC12406255, “Engineering Peptide Modulators for T‑Cell Migration by Structural Scaffold Matching” (Journal of Medicinal Chemistry, 2025).
Positions of bridges follow the written chain, without caps; N, C: chain ends. Non-standard residues stand in square brackets, D forms with d. Residues, ends and D or L forms follow the SMILES beside them. Nle = CCCC[C@H](N)C(=O)O

Test system: CD3+ cells of MS patients
Assay: Transwell migration assay with PBMC of MS patients, CD3+ cells
Format: cell-based, human
Conditions: PBMC of treatment-naive MS patients; p = 0.0008; repeated measures one-way ANOVA, Dunnett
Procedure: 5 Activity of the novel VhTI-pep 2 and pepitem on patient lymphocytes. PPBMCs were isolated from the blood of MS patients with a very recent disease flare receiving no immunosuppressive or immunomodulatory treatment in the past. The effect of the linear pepitem and VhTI-pep 2 was tested for the T-cell populations (A) CD3^+, (B) Th1, (C) CD4^+, (D) memory CD4^+, (E) CD8^+, and (F) memory CD8^+ cells. Data are shown as mean ± SD for 4 independent measurements. Statistical analysis was performed on the level of total counted cells using repeated measures one-way ANOVA with Dunnett’s post hoc test. Statistical significance is indicated as n.s. (not significant), * p < 0.05; ** p < 0.01; *** p < 0.001.
Human microvascular endothelial cells (HMEC-1 cells, Cytion, Eppelheim, Germany) were cultured in MCDB-131 medium (with 2.2 g/L sodium bicarbonate, without L-glutamine, PAN-Biotech Aidenbach, Germany) supplemented with 10% fetal bovine serum (FBS, Capricorn Scientific, Ebsdorfergrund, Germany), 100 units/ml penicillin-streptomycin (Sigma-Aldrich) 10 ng/mL epidermal growth factor (BioLegend, San Diego, US), 1 μg/mL hydrocortisone (Sigma-Aldrich), and 10 mM L-glutamine (Sigma-Aldrich). For experiments, the cells were used between passage numbers 4–9. […]

CCCC[C@@H]1NC(=O)[C@H](C(C)C)NC(=O)[C@H](CCCCN)NC(=O)[C@@H](NC(=O)[C@H](CCC(N)=O)NC(=O)[C@H](CCC(=O)O)NC(C)=O)CSSC[C@@H](C(=O)N[C@@H](CCC(=O)O)C(=O)N[C@@H](CCCCN)C(N)=O)NC(=O)[C@H](CC(N)=O)NC(=O)[C@H](CC(=O)O)NC(=O)[C@H](CC(C)C)NC(=O)[C@@H]2CSSC[C@H](NC1=O)C(=O)N[C@@H](Cc1ccc(O)cc1)C(=O)N[C@@H](C)C(=O)N[C@@H](CCC(N)=O)C(=O)NCC(=O)N[C@@H](C)C(=O)N[C@@H](CCC(=O)O)C(=O)N[C@@H](CC(C)C)C(=O)N1CCC[C@H]1C(=O)N[C@@H](CCC(=O)O)C(=O)N[C@@H](CC(C)C)C(=O)N[C@@H](CC(C)C)C(=O)N[C@@H](CCCNC(=N)N)C(=O)N[C@@H](CCCNC(=N)N)C(=O)N2 [VhTI-pep 2] (Ac-EQCKV[Nle]CYAQGAELPELLRRCLDNCEK-NH2; disulfide 3-25, 7-21)
migration of CD3+ cells of MS patients (in words): significantly reduced
